Experiments:
human CYP11B2 = human CYP11B2 (Homo sapiens (Human), UniProt P19099); test: G-402 cellular enzyme assay, human CYP11B2 (aldosterone release, HTRF); type: cell-based; details: G-402 cells expressing human CYP11B2; 1 μM Deoxycorticosterone
Excerpt: (§1) Specifically we developed stable G-402 cells expressing ectopically human CYP11B1, human CYP11B2, human CYP11A1, cynomolgus CYP11B1 or cynomolgus CYP11B2 enzyme activity.
(§2) The expression plasmids contains the ORF for either human/cyno CYP11B1 or CYP11B2 under the control of a suitable promoter (CMV-promoter) and a suitable resistance marker (neomycin). Using standard techniques the expression plasmid is transfected into G-402 cells and these cells are then selected for expressing the given resistance markers. Individual cell-clones are then selected and assessed for displaying the desired enzymatic activity using 11-Deoxycorticosterone (Cyp11B2) or 11-Deoxycortisol (Cyp11B1) as a substrate.
(§3) For assaying enzymatic activity, cells were plated onto 96 well plates and incubated for 16 h. An aliquot of the supernatant is then transferred and analyzed for the concentration of the expected product (Aldosterone for CYP11B2; Cortisol for CYP11B1). The concentrations of these steroids can be determined using HTRF assays from CisBio analyzing either Aldosterone or Cortisol.
(§4) Inhibition of the release of produced steroids can be used as a measure of the respective enzyme inhibition by test compounds added during the cellular enzyme assay. The dose dependent inhibition of enzymatic activity by a compound is calculated by means of plotting added inhibitor concentrations x-axes) vs. measured steroid/product level (y-axes). The inhibition is then calculated by fitting the following 4-parameter sigmoidal function (Morgan-Mercer-Flodin (MMF) model) to the raw data points using the least squares method:
(§5) [formula] wherein, A is the maximum y value, B is the EC50 factor determined using XLFit, C is the minimum y value and D is the slope value.
(§6) EC50 values for compounds claimed herein were tested with the G402-based assay system described. Cyp11B2 enzyme activity was tested in presence of 1 μM Deoxycorticosterone and variable amounts of inhibitors; Cyp11B1 enzyme activity was tested in presence of 1 μM Deoxycortisol and variable amounts of inhibitors.

human CYP11B1 = human CYP11B1 (Homo sapiens (Human), UniProt P15538); test: G-402 cellular enzyme assay, human CYP11B1 (cortisol release, HTRF); type: cell-based; details: G-402 cells expressing human CYP11B1; 1 μM Deoxycortisol
Excerpt: as §1, §2, §3, §4, §5, §6

human CYP11B2, sequence (P19099 25-503): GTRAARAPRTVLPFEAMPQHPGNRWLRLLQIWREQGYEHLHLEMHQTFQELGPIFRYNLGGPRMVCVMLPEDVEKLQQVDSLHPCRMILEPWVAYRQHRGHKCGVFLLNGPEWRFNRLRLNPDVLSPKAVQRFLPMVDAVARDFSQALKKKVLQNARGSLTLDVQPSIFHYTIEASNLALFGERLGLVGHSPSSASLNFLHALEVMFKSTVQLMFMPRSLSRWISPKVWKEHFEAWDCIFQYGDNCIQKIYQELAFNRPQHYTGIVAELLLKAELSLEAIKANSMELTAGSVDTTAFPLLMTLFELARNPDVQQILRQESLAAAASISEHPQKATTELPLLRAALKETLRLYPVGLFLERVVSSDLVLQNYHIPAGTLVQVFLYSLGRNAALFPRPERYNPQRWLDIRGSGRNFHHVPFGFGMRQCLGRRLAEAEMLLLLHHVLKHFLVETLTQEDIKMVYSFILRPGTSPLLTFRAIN
human CYP11B1, sequence (P15538 25-503): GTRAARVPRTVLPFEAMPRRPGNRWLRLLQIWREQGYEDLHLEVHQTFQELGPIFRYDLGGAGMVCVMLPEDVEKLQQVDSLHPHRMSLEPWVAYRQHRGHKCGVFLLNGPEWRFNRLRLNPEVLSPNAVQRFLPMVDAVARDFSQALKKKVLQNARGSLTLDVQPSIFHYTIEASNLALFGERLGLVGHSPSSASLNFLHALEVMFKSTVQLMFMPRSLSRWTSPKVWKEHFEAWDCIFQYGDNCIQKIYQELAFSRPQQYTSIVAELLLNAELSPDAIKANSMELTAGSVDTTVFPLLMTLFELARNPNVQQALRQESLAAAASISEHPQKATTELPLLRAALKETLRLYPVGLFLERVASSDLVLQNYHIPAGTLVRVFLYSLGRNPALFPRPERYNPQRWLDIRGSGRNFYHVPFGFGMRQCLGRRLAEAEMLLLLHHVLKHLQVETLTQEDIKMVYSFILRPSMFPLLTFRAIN

| SMILES | EC50 (human CYP11B2) [nM] | EC50 (human CYP11B1) [nM] |
| --- | --- | --- |
| CN1C(=O)CCc2cc(-c3cncc4c3CCC[C@H]4NC(=O)C3CC3)ccc21 [Example 64, Cyclopropanecarboxylic acid [(R)-4-(1-methyl-2-oxo-1,2,3,4-tetrahydro-quinolin-6-yl)-5,6,7,8-tetrahydro-isoquinolin-8-yl]-amide] | 46.2 | 2360 |
| CCC(=O)NC1CCc2c(-c3cc(Cl)c4c(c3)CCC(=O)N4C)cncc21 (racemic) [Example 58, (rac)-N-(4-(8-Chloro-1-methyl-2-oxo-1,2,3,4-tetrahydroquinolin-6-yl)-6,7-dihydro-5H-cyclopenta[c]pyridin-7-yl)propionamide] | 44.6 | 7600 |
| CCS(=O)(=O)NC1CCCc2c(-c3cc4c(cc3Cl)N(C)C(=O)CC4)cncc21 (racemic) [Example 34, (rac)-Ethanesulfonic acid [4-(7-chloro-1-methyl-2-oxo-1,2,3,4-tetrahydro-quinolin-6-yl)-5,6,7,8-tetrahydro-isoquinolin-8-yl]-amide] | 386 | 34700 |
| CCC(=O)N[C@H]1c2cncc(-c3cc4c(cc3F)N(C)C(=O)CC4)c2CC[C@H]1C (single isomer, unassigned) [Example 48, (+)-N-[(7R,8R or 7S,8S)-4-(7-Fluoro-1-methyl-2-oxo-1,2,3,4-tetrahydro-quinolin-6-yl)-7-methyl-5,6,7,8-tetrahydro-isoquinolin-8-yl]-propionamide] | 26.1 | 2880 |
| CCC(=O)NC1CCc2c(-c3cc(Cl)c4c(c3)CCC(=O)N4C)cncc21 (single isomer, unassigned; (+)) [Example 60, (+)-(R or S)—N-(4-(8-Chloro-1-methyl-2-oxo-1,2,3,4-tetrahydroquinolin-6-yl)-6,7-dihydro-5H-cyclopenta[c]pyridin-7-yl)propionamide] | 8.8 | 1170 |
| CCC(=O)NC1CCCc2c(-c3cc(Cl)c4c(c3)CCC(=O)N4C)cncc21 (racemic) [Example 33, (rac)-N-[4-(8-Chloro-1-methyl-2-oxo-1,2,3,4-tetrahydro-quinolin-6-yl)-5,6,7,8-tetrahydro-isoquinolin-8-yl]-propionamide] | 79.8 | 11600 |
| CCC(=O)N[C@H]1c2cncc(-c3ccc4c(c3)CCC(=O)N4C)c2CC[C@H]1F (single isomer, unassigned) [Example 53, (+)-N-[(7R,8S or 7S,8R)-7-Fluoro-4-(1-methyl-2-oxo-1,2,3,4-tetrahydro-quinolin-6-yl)-5,6,7,8-tetrahydro-isoquinolin-8-yl]-propionamide] | 122 | 3570 |
| CCS(=O)(=O)NC1CCc2c(-c3ccc4c(c3)CCC(=O)N4C)cncc21 (racemic) [Example 10, (rac)-N-(4-(1-Methyl-2-oxo-1,2,3,4-tetrahydroquinolin-6-yl)-6,7-dihydro-5H-cyclopenta[c]pyridin-7-yl)ethanesulfonamide] | 59 | 4170 |
| CCS(=O)(=O)NC1CCCc2c(-c3cc(Cl)c4c(c3)CCC(=O)N4C)cncc21 (racemic) [Example 37, (rac)-Ethanesulfonic acid [4-(8-chloro-1-methyl-2-oxo-1,2,3,4-tetrahydro-quinolin-6-yl)-5,6,7,8-tetrahydro-isoquinolin-8-yl]-amide] | 199 | 13500 |
| CCS(=O)(=O)NC1CCc2c(-c3cc4c(cc3F)N(C)C(=O)CC4)cncc21 (single isomer, unassigned; (+)) [Example 27, (+)-(R or S)—N-(4-(7-Fluoro-1-methyl-2-oxo-1,2,3,4-tetrahydroquinolin-6-yl)-6,7-dihydro-5H-cyclopenta[c]pyridin-7-yl)ethanesulfonamide] | 11.2 | 1890 |
| CN1C(=O)CCc2cc(-c3cncc4c3CCCC4O)ccc21 (racemic) [Example 67, (rac)-6-(8-Hydroxy-5,6,7,8-tetrahydro-isoquinolin-4-yl)-1-methyl-3,4-dihydroquinolin-2(1H)-one] | 4.7 | 206 |

Source: patent US9353081B2, “Bicyclic dihydroquinoline-2-one derivatives” (Hoffmann-La Roche Inc., priority 2011, dated 2016)
